Data published in patent US9694006B2, “Use of pyrroloquinoline compounds to kill clinically latent microorganisms” (HELPERBY THERAPEUTICS LIMITED, priority 2005, dated 2017).

Legend:
[1] = system: Staph. aureus stationary phase bacteria; test: Bactericidal activity against stationary-phase cultures (CFU counts), Staph. aureus; type: cell-based, Staphylococcus aureus; settings: 5 μg/mL of test compound
[2] = system: E. coli persister bacteria; test: Bactericidal activity against persistent bacteria (CFU counts), E. coli; settings: 25 μg/mL of test compound

| SMILES | log kill [1] | log kill [2] |
| --- | --- | --- |
| COc1cc(OC)c2nc(C)c3c(c2c1)N(c1cccc(Oc2ccccc2)c1)CC3.O=C(O)C(F)(F)F [Example 1(a), 6,8-Dimethoxy-4-methyl-1-(3-phenoxyphenyl)-2,3-dihydro-1H-pyrrolo[3,2-c]quinoline trifluoroacetate] | 3.55 | – |
| Cc1nc2ccc(Oc3ccccc3)cc2c2c1CCN2Cc1ccccc1 [Example 1(h), 1-Benzyl-4-methyl-8-phenoxy-2,3-dihydro-1H-pyrrolo[3,2-c]quinoline] | – | 3.83 |
